Tests used:
[1] = EGF biological activity, test not specified
From the text: C. […] EGF-D represents the 52-amino acid sequence obtained by removing the C-terminal arg, while EGF-B corresponds to EGF-D wherein the C-terminal arg-leu has been removed. EGF-C appears to be EGF-D in which Met21 has been oxidized, while EGF-A appears to be EGF-B with Met21 oxidized. EGF-D is reported to be stable when stored as a lyophilized powder.
EGF may also be altered by adding an N-terminal extension. EGF-flag (.phi.EGF) derivatives have the additional sequence […], which permits rapid purification of peptides by affinity chromatography on anti-flag MAb columns (International Biotechnology Inc.).

[2] = tested on: Human foreskin fibroblasts; assay: Mitogenicity: 3H-thymidine incorporation; type: cell-based
Experimental: Mitogenicity was assayed substantially following the method described by D. J. Knauer et al, J Biol Chem (1984) 259:5623-31.
Human foreskin fibroblasts were obtained and frozen at the thirteenth passage. Thawed cells are trypsinized, pelleted, and resuspended in a medium containing DMEM, 5% FBS, 1 mM sodium pyruvate, 300 μg/mL L-glutamine, 100 U/mL penicillin, and 100 μg/mL streptomycin. The cells are counted using a hemocytometer and 0.4% trypan blue. The cell concentration is adjusted to 1×10^-5 cells/mL using the same medium, and dispensed onto microtiter plates (100 μL/well). The plates are incubated for 5 days in a tissue culture incubator.
EGF muteins prepared in Example 1 and native sequence EGF are dissolved to make 100 μg/mL solutions. These solutions are used to make serial dilutions of 20, 10, 5, 2.5, 1.25, 0.625, 0.3125, 0.15625, 0.078125, 0.0390625, 0.0195, and 0.00975 ng/mL. Ten μL of each dilution is added to a microtiter plate well, and the plates returned to the incubator and incubated at 37° C. for 18 hours. The cells are then pulsed with ^3 H-thymidine (^3 H-T), by adding 10 μL of ^3 H-T (100 μCi/mL) to each well, and incubating for 24 hours. The ^3 H-T is then expelled, and the plates rinsed twice with PBS. To fix the cells, the plates are then incubated twice with 5% trichloroacetic acid (TCA) for 15 minutes at room temperature, followed by incubation twice with 100% MeOH. The plates are then air-dried.
The well contents are then solubilized using 0.3 N NaOH (50 μL/well) for 30 minutes, and transferred to scintillation vials. Scintillation fluid (Ready-Solv EP, 4 mL) is then added to each vial, and the vials counted for 1 min with a 0-1,000 (^3 H) window in a Beckman LS3801 counter.

[3] = target: T1, EGF receptor on fixed A431 cells (Homo sapiens, UniProt P00533); assay: Receptor affinity: binding to fixed A431 cells; conditions: 1 nM, 2 hr at 37° C.
T1 construct: Confluent A43 1 cells were fixed in 96-well microtiter plates using 0.05% formaldehyde; endogenous in cells; host or cells: A431 cells, formaldehyde-fixed
Experimental: Confluent A43 1 cells were fixed in 96-well microtiter plates using 0.05% formaldehyde for 10 min at room temperature, then washed 3× with 200 μL PBS with 0.1% bovine serum albumin (BSA).
The wells were then washed 3× with 200 μL of PBS/0.1% BSA, detached, and counted in a gamma counter.

[4] = forms isolated from recombinant yeast culture; cited from earlier work
[5] = stored as a lyophilized powder; cited from earlier work

Substance: .phi.EGF-E12: flag-extended EGF mutein with Glu for Gly12 (NSDSECPLSHDEYCLHDGVCMYIEALDKYACNCVVGYIGERCQYRDLKWWELR; not fully specified; Epidermal growth factor N-terminal FLAG extension; UniProt P01133 971-1023, looked up, variant G12E)
- biological activity of EGF-flag derivatives [1]: biologically active

Substance: .phi.EGF-Q12: flag-extended EGF mutein with Gln at position 12 (NSDSECPLSHDQYCLHDGVCMYIEALDKYACNCVVGYIGERCQYRDLKWWELR; not fully specified; Epidermal growth factor N-terminal FLAG extension; UniProt P01133 971-1023, looked up, variant G12Q)
- Mitogenicity [2]: 286 percentage of control (EGF)
- Affinity [3]: 154 percentage of control (EGF)

Substance: .phi.EGF-W13: flag-extended EGF mutein with Trp for Tyr13 (NSDSECPLSHDGWCLHDGVCMYIEALDKYACNCVVGYIGERCQYRDLKWWELR; not fully specified; Epidermal growth factor N-terminal FLAG extension; UniProt P01133 971-1023, looked up, variant Y13W)
- Mitogenicity [2]: 216 percentage of control (EGF)
- Affinity [3]: 73 percentage of control (EGF)
- biological activity of EGF-flag derivatives [1]: biologically active

Substance: EFG: wild-type human epidermal growth factor, 53-amino acid protein; control of Table 1 [reference compound]
- Mitogenicity [2]: 100 percentage of control (EGF)

Substance: EGF-A15: EGF mutein with Ala at position 15
- Mitogenicity [2]: 3 percentage of control (EGF)

Substance: EGF-A41: EGF mutein with Ala at position 41
- Mitogenicity [2]: < 0.4 percentage of control (EGF)

Substance: EGF-A43: EGF mutein with Ala at position 43 (Glu43 replaced)
- Mitogenicity [2]: 63 percentage of control (EGF)

Substance: EGF-B: EGF-D wherein the C-terminal arg-leu has been removed (NSDSECPLSHDGYCLHDGVCMYIEALDKYACNCVVGYIGERCQYRDLKWWE; not fully specified; Epidermal growth factor; UniProt P01133 971-1021, looked up, fragment)
- EGF activity [4]: full EGF activity

Substance: EGF-D: 52-amino acid sequence obtained by removing the C-terminal arg of EGF (NSDSECPLSHDGYCLHDGVCMYIEALDKYACNCVVGYIGERCQYRDLKWWEL; not fully specified; Epidermal growth factor; UniProt P01133 971-1022, looked up, fragment)
- stability on storage [5]: stable
- EGF activity [4]: full EGF activity

Source: US5547935A (Chiron Corporation, priority 1994, dated 1996)
